One experiment has as its target T1, hNET (Homo sapiens, UniProt P23975).
T1 construct: expressed in transfected cells
Kind of experiment: radioligand uptake inhibition assay ([3H]MPP+). It counts as cell-based. The conditions noted are these: for IC50: HEK293 stably expressing hNET, 20 nM [3H]MPP+, mean and SD, N = 3-6, read-out: IC50, uptake inhibition at NET (hNET); for Hill coefficient nH at NET: uptake inhibition curve. As for the experimental part:
1. Biological characterization
1.1. Experimental methods
Buffer and solution compositions (in mM) are as follows:
Krebs-HEPES buffer (KHB): 120 NaCl, 3 KCl, 2 CaCl2, 2 MgCl2, 20 glucose, 10 HEPES NaOH, pH = 7.3 – 7.4. […]
10 mM glucose, 1.25 mM NaH2PO4, pH = 7.4 (oxygenated with 95% O2, 5% CO2).
Human embryonic kidney 293 cells (HEK293) stably expressing the mCherry-tagged, YFP-tagged, and GFP-tagged human isoforms of SERT (mCherry-SERT, YhSERT, GhSERT), DAT (YhDAT), NET (hNET), and OCT3 (YhOCT3) were cultured in Dulbecco's modified Eagle's medium (DMEM) with high glucose (4.5 g/L) and l-glutamine (584 mg/L), supplemented with 10% fetal calf serum (FCS), 100 units/mL penicillin and 100 µg/mL streptomycin. The cells were cultured in a humidified atmosphere (37 °C, 5% CO2). Geneticin (50 µg/mL), Blasticidin (6 µg/mL), and Zeocin® (150 µg/mL) were added to maintain the selection pressure for the stable cell lines. Cells were typically seeded 24 hours prior to the experiments.
For uptake inhibition experiments, cells were seeded at 3.6 x 10^4 cells/0.2 mL into 96-well plates coated […]
with poly-d-lysine (PDL). […]
For uptake inhibition experiments, the cell medium was aspirated and the cells were washed once with 0.2 mL/well KHB at room temperature. The cells were pre-incubated with increasing concentrations of the substance of interest, diluted in KHB (0.05 mL/well). The pre-incubation solution was replaced with 0.05 mL/well KHB solution still containing the substance of interest and additionally the tritiated substrate (100 nM [3H]DA for YhDAT; 100 nM [3H]5HT for YhSERT; 20 nM and 50 nM [3H]MPP+ for hNET and YhOCT3), after 6 minutes (YhSERT), 5 minutes (YhDAT, hNET), or 10 minutes (YhOCT3). Substrate uptake was stopped after one minute (for [3H]DA and [3H]5HT), three minutes, or […]
ten minutes (for [3H]MPP+), by exchange of the substrate-containing buffer with 0.2 mL ice-cold KHB.
The KHB was aspirated immediately. Cells were lysed and prepared for [3H] content analysis by adding 0.2 mL Ultima Gold™ XR liquid scintillation cocktail. Measurements were performed in a 1450 MicroBeta microplate liquid scintillation counter. Non-specific uptake was determined in the presence of 30 µM paroxetine (for YhSERT), 50 µM GBR12909 (for YhDAT and hNET), or 100 µM decynium-22 (for YhOCT3). […]

For experiment [1], the target named is T2, endogenously expressed SERT (Mus musculus, UniProt Q60857).
T2 construct: label endogenously expressed SERT; from tissue; host or cells: acute coronal brain slices of C57/BL-6 and Pet1-eYFP mice (dorsal striatum, substantia nigra reticulata, dorsal raphe)
T2 sequence (Q60857 whole entry): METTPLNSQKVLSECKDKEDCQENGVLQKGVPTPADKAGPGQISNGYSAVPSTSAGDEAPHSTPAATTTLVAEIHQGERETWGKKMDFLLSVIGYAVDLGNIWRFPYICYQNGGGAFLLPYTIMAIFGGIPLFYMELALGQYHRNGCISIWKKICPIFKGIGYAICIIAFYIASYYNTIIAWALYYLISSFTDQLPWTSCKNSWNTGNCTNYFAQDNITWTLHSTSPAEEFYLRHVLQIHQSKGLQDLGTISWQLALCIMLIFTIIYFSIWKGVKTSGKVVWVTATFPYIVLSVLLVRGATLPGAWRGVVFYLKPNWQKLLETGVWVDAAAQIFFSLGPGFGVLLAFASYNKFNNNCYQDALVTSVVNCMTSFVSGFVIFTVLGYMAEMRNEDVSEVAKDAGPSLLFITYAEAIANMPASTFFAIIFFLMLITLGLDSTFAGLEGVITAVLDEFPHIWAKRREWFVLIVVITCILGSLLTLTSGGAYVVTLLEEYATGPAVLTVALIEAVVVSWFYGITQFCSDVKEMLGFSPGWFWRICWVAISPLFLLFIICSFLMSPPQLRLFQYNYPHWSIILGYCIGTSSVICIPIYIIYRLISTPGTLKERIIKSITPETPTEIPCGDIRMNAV
Put plainly: two-photon microscopy of acute mouse brain slices. As to conditions: for staining of acute mouse brain slices (DS, SNr, DR): 500 nM, 30 min, reduced by escitalopram or paroxetine. The source says:
All animal protocols were approved by the Institutional Animal Care and Use Committee (IACUC) of Columbia University, following guidelines established in the NIH Guide for the Care and Use of Laboratory Animals. All animals were caged in groups of 5 or less in a 12-hr light/dark cycle with access to food and water ad libitum.
Acute mouse brain slices preparation
Wild-type C57/BL-6 (The Jackson Laboratory, Bar Harbor, ME) and Pet1-eYFP mice were sacrificed by cervical dislocation at ages > 12 weeks. Pet1-eYFP mice (Cg-Tg(Fev-cre)1Esd/J (ePet-cre; The Jackson Laboratory) crossed with Ai32(RCLChR2(H134R)/EYFP (Ai32; The Jackson Laboratory) maintained on a 129SvEv/Tac background) were kindly provided by Dr. Mark S. Ansorge (Columbia University Irving Medical Center; Department of Psychiatry, New York, NY 10032). Mice were decapitated, and the brain was removed and placed in an ice-cold sucrose cutting solution. Coronal brain slices with 300 µm thickness were prepared using a Leica VT1200 vibratome at 0 – 4 °C. Slices containing the striatum, substantia nigra, and the raphe were transferred to oxygenated ACSF solution and allowed to equilibrate at room temperature.
Slices were incubated with PyrAte-(S)-citalopram conjugates (500 nM in ACSF) for 30 minutes at room temperature. For inhibition experiments, escitalopram (2 µM) and paroxetine (30 µM) were incubated for 15 minutes prior to addition of the test compound. Each slice was then transferred to an imaging chamber and held in place by a stainless-steel slice anchor (Warner Instruments). ACSF solutions containing the test compounds were continuously perfused throughout the imaging experiments. Structures at depths between 20 to 30 µm from the top of the slice were visualized with fluorescent signals using a Prairie Ultima multi-photon microscopy sytem: PyrAte was imaged using 810 nm excitation wavelength and 525/50 nm emission filter, eYFP was imaged using 965 nm excitation wavelength and 525/50 nm emission filter. Images were captured using Prairie View software and processed with ImageJ. Further co-localization analysis was performed using the JACoP plug-in.1 Statistical and data analysis
Data treatment and statistical analysis were performed using Microsoft Excel 2016 and GraphPad Prism v10.0. Data and statistical tests as shown in Figure 2 include individual points, mean, SEM, and P = 0.0023 as determined using two-tailed, paired t-test (t = 5.690, df = 5). Data and statistical tests as shown in Figure 5 include individual values, mean, SEM, and P values as determined using two-tailed unpaired t-test with Welch’s corrections (Fig. 5A: P = 0.0166, t = 4.665, df = 3.157; Fig. 5B: P =

“Also recorded” adds a separate entry of the source.

T1 sequence (P23975 whole entry): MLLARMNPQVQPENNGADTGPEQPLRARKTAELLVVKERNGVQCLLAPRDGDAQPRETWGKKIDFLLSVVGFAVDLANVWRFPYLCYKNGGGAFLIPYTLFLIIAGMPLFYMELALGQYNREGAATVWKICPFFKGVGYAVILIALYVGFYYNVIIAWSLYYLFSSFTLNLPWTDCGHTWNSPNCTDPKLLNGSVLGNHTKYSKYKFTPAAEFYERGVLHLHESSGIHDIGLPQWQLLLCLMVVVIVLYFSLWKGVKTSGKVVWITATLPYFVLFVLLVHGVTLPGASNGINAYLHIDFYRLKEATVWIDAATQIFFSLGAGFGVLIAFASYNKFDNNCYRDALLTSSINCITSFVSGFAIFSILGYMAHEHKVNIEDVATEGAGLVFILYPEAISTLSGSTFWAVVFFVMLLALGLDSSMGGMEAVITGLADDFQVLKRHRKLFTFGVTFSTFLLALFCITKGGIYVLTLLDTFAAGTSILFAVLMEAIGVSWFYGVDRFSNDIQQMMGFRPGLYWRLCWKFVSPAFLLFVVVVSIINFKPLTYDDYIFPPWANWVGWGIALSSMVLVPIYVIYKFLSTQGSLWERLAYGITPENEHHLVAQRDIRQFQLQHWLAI

For `CCN(CC)c1ccc(-c2cc[n+]3c(-c4ccccc4)c(N4CCCC4)n(CCCC(=O)NCc4ccc5c(c4)CO[C@@]5(CCCN(C)C)c4ccc(F)cc4)c3c2)cc1` [PYR-C3-CIT, PyrAte-C3-(S)-citalopram], the IC50 (in general, the point on the concentration scale where inhibition reaches its midpoint) on hNET was determined as 10.9 µM. Moreover, the “Hill coefficient nH at NET” value on hNET is −1.0. In addition, in experiment [1], the “staining of acute mouse brain slices (DS, SNr, DR)” value was “localization of the compound in serotonergic regions in the DS and SNr”. In addition, the “Pearson's correlation coefficient r, co-localization with eYFP-expressing serotonergic projections” value was 0.70 in experiment [1] (DS, Pet1-eYFP mice); 0.43 in experiment [1] (DS, in the presence of paroxetine); 0.72 in experiment [1] (SNr, Pet1-eYFP mice); 0.58 in experiment [1] (SNr, in the presence of paroxetine).

As to `CCN(CC)c1ccc(-c2cc[n+]3c(-c4ccccc4)c(N4CCCC4)n(CCCCCCC(=O)NCc4ccc5c(c4)CO[C@@]5(CCCN(C)C)c4ccc(F)cc4)c3c2)cc1` [PYR-C6-CIT, PyrAte-C6-(S)-citalopram], on hNET, the IC50 amounted to 12.6 µM and the “Hill coefficient nH at NET” value was −1.3. In addition, in experiment [1], the “staining of acute mouse brain slices (DS, SNr, DR)” value is listed as “effectively stains all three areas examined; also recorded: SERT-specific staining in acute mouse brain slices”.

Values taken from article PMC11891579, “Fluorescent PyrAte-(S)-citalopram conjugates enable imaging of the serotonin transporter in living tissue” (Chemical Science, 2025).
